In patent US8420657B2 (Novartis AG, priority 2008, dated 2013) one finds IC50 data, which are given here for 23 compounds.

Each structure is given as a SMILES string.

T1 sequence (O60674 808-1132): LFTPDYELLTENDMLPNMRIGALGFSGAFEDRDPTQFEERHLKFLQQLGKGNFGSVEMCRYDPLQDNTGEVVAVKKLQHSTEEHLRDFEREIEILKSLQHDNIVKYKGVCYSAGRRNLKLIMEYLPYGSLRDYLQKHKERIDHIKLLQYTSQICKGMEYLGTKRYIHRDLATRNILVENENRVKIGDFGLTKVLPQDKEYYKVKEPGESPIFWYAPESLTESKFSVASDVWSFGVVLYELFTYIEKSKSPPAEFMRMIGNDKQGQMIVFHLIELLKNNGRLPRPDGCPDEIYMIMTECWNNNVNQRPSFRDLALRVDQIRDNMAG

This test has as its target T1, GST-JAK2(808-1132) (Homo sapiens, UniProt O60674).
T1 construct: GST-JAK2(808-1132); purchased Invitrogen (Carlsbad, USA) #4288
The test is described as follows: JAK2 kinase assay (Caliper mobility shift, LabChip 3000). The format is biochemical. An excerpt: All four kinases of the JAK/TYK-kinase family were used as purified recombinant GST-fusion proteins, containing the active kinase domains. GST-JAK1 (866-1154), GST-JAK3(811-1124), and GST-TYK2(888-1187) were expressed and purified by affinity chromatography at the EPK biology unit. GST-JAK2(808-1132) was purchased from Invitrogen (Carlsbad, USA, #4288).
The kinase assays were based on the Caliper mobility shift assay using the LabChip 3000 systems. This technology is similar to capillary electrophoresis and uses charge driven separation of substrate and product in a microfluidic chip.
All kinase reactions were performed in 384 well microtiter plates in a total reaction volume of 18 μl. The assay plates were prepared with 0.1 μl per well of test compound in the appropriate test concentration, as described under the section “preparation of compound dilutions”. The reactions were started by combining 9 μl of substrate mix (consisting of peptide and ATP) with 9 μl of kinase dilution. The reactions were incubated for 60 minutes at 30° C. and stopped by adding 70 μl of stop buffer (100 mM Hepes, 5% DMSO, 0.1% Coating reagent, 10 mM EDTA, 0.015% Brij 35).
Fluorescently labeled synthetic peptides were used as substrates in all reactions. A peptide derived from the sequence of IRS-1(IRS-1 peptide, SEQ ID NO: 1 FITC-Ahx-KKSRGDYMTMQIG-NH2) was used for JAK1 and TYK2 and a peptide named JAK3tide SEQ ID NO: 2 (FITC-GGEEEEYFELVKKKK-NH2) for JAK2 and JAK3. Specific assay conditions are described in Table1:
The terminated reactions were transferred to the Caliper LabChip 3000 reader and the turnover of each reaction was measured by determining the substrate/product ratio.
Test compounds were dissolved in DMSO (10 mM) and transferred into 1.4 mL flat bottom or V-shaped Matrix tubes carrying a unique 2D matrix chip by individual compound hubs. The numbers of these chips were distinctively linked to the individual compound identification numbers. The stock solutions were stored at −20° C. if not used immediately. For the test procedure the vials were defrosted and identified by a scanner whereby a working sheet was generated that guided the subsequent working steps. Compound dilutions were made in 96 well plates. This format enabled the assay of maximally 40 individual test compounds at 8 concentrations (single points) including 4 reference compounds. The dilution protocol included the production of pre-dilution plates, master plates and assay plates:
Pre-dilution plates: 96 polypropylene well plates were used as pre-dilution plates. A total of 4 pre-dilution plates were prepared including 10 test compounds each on the plate positions A1-A10, one standard compound at A11 and one DMSO control at A12. All dilution steps were done on a HamiltonSTAR robot.
Master plates: 100 μL of individual compound dilutions including standard compound and controls of the 4 “pre-dilution plates” were transferred into a 384 “master plate” including the following concentrations 1,820, […], 182, 54.6, 18.2, 5.46, 1.82 and 0.546 μM, respectively in 90% of DMSO.
Assay plates: Identical assay plates were then prepared by pipetting 100 nL each of compound dilutions of the master plates into 384-well “assay plates”. In the following the compounds were mixed with 9 μL of assays components plus 9 μL enzyme corresponding to a 1:181 dilution steps enabling the final concentration of 10, 3.0, 1.0, 0.3, 0.1, 0.03, 0.01 and 0.003 μM, respectively. The preparation of the master plates were handled by the Matrix PlateMate Plus robot and replication of assay plates by the HummingBird robot.
Turning to `Cc1ccc(Nc2ncc3ccn(-c4ccc(C(=O)N5CCOCC5)c(F)c4)c3n2)cc1CN1C[C@H](C)NC[C@H]1C` (racemic) [Example 379, (4-{2-[3-((2R,5S)-2,5-Dimethyl-piperazin-1-ylmethyl)-4-methyl-phenylamino]-pyrrolo[2,3-d]pyrimidin-7-yl}-2-fluoro-phenyl)-morpholin-4-yl-methanone], the IC50 was 11 nM. As for `CS(=O)(=O)c1ccc(-n2ccc3cnc(Nc4ccc(F)cc4)nc32)cc1` [Example 55, (4-Fluoro-phenyl)-[7-(4-methanesulfonyl-phenyl)-7H-pyrrolo[2,3-d]pyrimidin-2-yl]-amine], the figure is 20 nM; as for `CS(=O)(=O)c1ccc(-n2ccc3cnc(Nc4ccc(C(=O)NCCO)cc4)nc32)cc1` [Example 51, N-(2-Hydroxy-ethyl)-4-[7-(4-methanesulfonyl-phenyl)-7H-pyrrolo[2,3-d]pyrimidin-2-ylamino]-benzamide], < 3 nM; as for `COc1ccc(Nc2ncc3ccn(-c4ccc(S(=O)(=O)NC(C)(C)C)cc4)c3n2)cc1OC` [Example 6, N-tert-Butyl-4-[2-(3,4-dimethoxy-phenylamino)-pyrrolo[2,3-d]pyrimidin-7-yl]-benzenesulfonamide], < 3 nM. `N#Cc1ccc(Nc2ncc3ccn(-c4ccc(C(=O)N5CCOCC5)c(F)c4)c3n2)cn1` [Example 228, 5-{7-[3-Fluoro-4-(morpholine-4-carbonyl)-phenyl]-7H-pyrrolo[2,3-d]pyrimidin-2-ylamino}-pyridine-2-carbonitrile]: the IC50 was determined as 56.5 nM.

Consider `Cc1ccc(Nc2ncc3ccn(-c4ccc(C(=O)N5CCOCC5)c(F)c4)c3n2)cc1CN1CCNC2(CC2)C1` [Example 374, (4-{2-[3-(4,7-Diaza-spiro[2.5]oct-7-ylmethyl)-4-methyl-phenylamino]-pyrrolo[2,3-d]pyrimidin-7-yl}-2-fluoro-phenyl)-morpholin-4-yl-methanone], for which the IC50 was 9.9 nM.

As for `Cc1cc(Nc2ncc3ccn(-c4cc(F)c(CN5CCOCC5)c(F)c4)c3n2)ccc1CN1C[C@@H](C)N[C@@H](C)C1` [Example 461, [7-(3,5-Difluoro-4-morpholin-4-ylmethyl-phenyl)-7H-pyrrolo[2,3-d]pyrimidin-2-yl]-[4-(cis-3,5-dimethyl-piperazin-1-ylmethyl)-3-methyl-phenyl]-amine], the IC50 is ≤ 3 nM.

For `Cc1ccc(Nc2ncc3ccn(-c4ccc(S(N)(=O)=O)cc4)c3n2)cc1CN1CCN(C)CC1` [Example 368, 4-{2-[4-Methyl-3-(4-methyl-piperazin-1-ylmethyl)-phenylamino]-pyrrolo[2,3-d]pyrimidin-7-yl}-benzenesulfonamide], the IC50 is 3.2 nM. For `CN1CCN(c2ccc(Nc3ncc4ccn(-c5ccc(N6CCCC6=O)cc5)c4n3)cn2)CC1` [Example 283, 1-(4-{2-[6-(4-Methyl-piperazin-1-yl)-pyridin-3-ylamino]-pyrrolo[2,3-d]pyrimidin-7-yl}-phenyl)-pyrrolidin-2-one], the IC50 stood at 23 nM. For `CC(=O)N1CCN(Cc2ccc(Nc3ncc4ccn(-c5ccc(S(C)(=O)=O)cc5)c4n3)cc2)CC1` [Example 319, 1-(4-{4-[7-(4-Methanesulfonyl-phenyl)-7H-pyrrolo[2,3-d]pyrimidin-2-ylamino]-benzyl}-piperazin-1-yl)-ethanone] the value was < 3 nM; for `O=C(c1c(F)cc(-n2ccc3cnc(Nc4ccc(CN5CCNCC5)cc4)nc32)cc1F)N1CCOCC1` [Example 314, {2,6-Difluoro-4-[2-(4-piperazin-1-ylmethyl-phenylamino)-pyrrolo[2,3-d]pyrimidin-7-yl]-phenyl}-morpholin-4-yl-methanone], < 3 nM. Turning to `COC(C)c1ccc(-n2ccc3cnc(Nc4ccc(N5CCN(C)CC5)nc4)nc32)cc1` (racemic) [Example 449, {7-[4-(1-Methoxy-ethyl)-phenyl]-7H-pyrrolo[2,3-d]pyrimidin-2-yl}-[6-(4-methyl-piperazin-1-yl)-pyridin-3-yl]-amine], the IC50 is ≤ 3 nM. For `Fc1cc(-n2ccc3cnc(Nc4cnn(C5CCNCC5)c4)nc32)cc(F)c1CN1CCOCC1` [Example 321, [7-(3,5-Difluoro-4-morpholin-4-ylmethyl-phenyl)-7H-pyrrolo[2,3-d]pyrimidin-2-yl]-(1-piperidin-4-yl-1H-pyrazol-4-yl)-amine] the value was < 3 nM; for `CN1CCN(Cc2ccc(Nc3ncc4ccn(-c5cc(F)c(C(=O)N6CCOCC6)c(F)c5)c4n3)cc2)CC1` [Example 205, (2,6-Difluoro-4-{2-[4-(4-methyl-piperazin-1-ylmethyl)-phenylamino]-pyrrolo[2,3-d]pyrimidin-7-yl}-phenyl)-morpholin-4-yl-methanone], 5 nM; for `CC(C)(C)OC(=O)N1CCN(C(=O)c2ccc(Nc3ncc4ccn(-c5ccc(S(C)(=O)=O)cc5)c4n3)cc2)CC1` [Example 69, 4-{4-[7-(4-Methanesulfonyl-phenyl)-7H-pyrrolo[2,3-d]pyrimidin-2-ylamino]-benzoyl}-piperazine-1-carboxylic acid tert-butyl ester], 4.8 nM. For `CN1CCN(c2ccc(Nc3ncc4ccn(-c5cc(F)c(C#N)c(F)c5)c4n3)cn2)CC1` [Example 445, 2,6-Difluoro-4-{2-[6-(4-methyl-piperazin-1-yl)-pyridin-3-ylamino]-pyrrolo[2,3-d]pyrimidin-7-yl}-benzonitrile] the value was 43 nM. For `Cc1ccc(Nc2ncc3ccn(-c4ccc(S(C)(=O)=O)cc4)c3n2)cc1CN1CCOCC1` [Example 328, [7-(4-Methanesulfonyl-phenyl)-7H-pyrrolo[2,3-d]pyrimidin-2-yl]-(4-methyl-3-morpholin-4-ylmethyl-phenyl)-amine] the value was 16 nM; for `OC1CCN(Cc2cc(Nc3ncc4ccn(-c5cc(F)c(CN6CCOCC6)c(F)c5)c4n3)ccn2)C1` (racemic) [Example 416, 1-{4-[7-(3,5-Difluoro-4-morpholin-4-ylmethyl-phenyl)-7H-pyrrolo[2,3-d]pyrimidin-2-ylamino]-pyridin-2-ylmethyl}-pyrrolidin-3-ol], ≤ 3 nM.

For `CCN1CCN(c2ccc(Nc3ncc4ccn(-c5ccc(CN6CCOCC6)c(F)c5)c4n3)cc2C)CC1` [Example 285, [4-(4-Ethyl-piperazin-1-yl)-3-methyl-phenyl]-[7-(3-fluoro-4-morpholin-4-ylmethyl-phenyl)-7H-pyrrolo[2,3-d]pyrimidin-2-yl]-amine], the IC50 was < 3 nM.

Take `Cc1cc(Nc2ncc3ccn(-c4cc(F)c(CN5CCOCC5)c(F)c4)c3n2)ccc1CN1CCNCC1` [Example 460, [7-(3,5-Difluoro-4-morpholin-4-ylmethyl-phenyl)-7H-pyrrolo[2,3-d]pyrimidin-2-yl]-(3-methyl-4-piperazin-1-ylmethyl-phenyl)-amine]: the IC50 is ≤ 3 nM. As for `Cc1ccc(Nc2ncc3ccn(-c4ccc(C(=O)N5CCOCC5)c(F)c4)c3n2)nc1C` [Example 222, {4-[2-(5,6-Dimethyl-pyridin-2-ylamino)-pyrrolo[2,3-d]pyrimidin-7-yl]-2-fluoro-phenyl}-morpholin-4-yl-methanone], the figure is 290 nM. For `CN1CCN(CCOc2cccc(Nc3ncc4ccn(-c5ccc(S(C)(=O)=O)cc5)c4n3)c2)CC1` [Example 32, [7-(4-Methanesulfonyl-phenyl)-7H-pyrrolo[2,3-d]pyrimidin-2-yl]-{3-[2-(4-methyl-piperazin-1-yl)-ethoxy]-phenyl}-amine] the value was 5.4 nM; for `CN1CCN(c2ccc(Nc3ncc4ccn(-c5cc(F)c(CO)c(F)c5)c4n3)cn2)CC1` [Example 280, (2,6-Difluoro-4-{2-[6-(4-methyl-piperazin-1-yl)-pyridin-3-ylamino]-pyrrolo[2,3-d]pyrimidin-7-yl}-phenyl)-methanol], 3.5 nM.

A word on the IC50: it is the concentration that gives 50% inhibition.
